Source: PMC12307812 (Nature Communications, 2025)
Read-outs that look alike come from different tables or passages of the source.

What was measured:
[1] = system: TMPRSS2; design: method as in earlier work; conditions: top 50 compounds by AUC, Figure 2 source data; cited from earlier work
[2] = molecular target: T1, Recombinant Human TMPRSS2 (Homo sapiens, UniProt O15393); assay: TMPRSS2 biochemical assay (Boc-Gln-Ala-Arg-AMC fluorogenic substrate)
T1 construct: human TMPRSS2 residues 106492, N-terminal 6x His-tag; 6x His-tag (N); purchased Cusabio CSB-YP023924HU; host or cells: yeast
T1 sequence (O15393 106-492 limits assumed): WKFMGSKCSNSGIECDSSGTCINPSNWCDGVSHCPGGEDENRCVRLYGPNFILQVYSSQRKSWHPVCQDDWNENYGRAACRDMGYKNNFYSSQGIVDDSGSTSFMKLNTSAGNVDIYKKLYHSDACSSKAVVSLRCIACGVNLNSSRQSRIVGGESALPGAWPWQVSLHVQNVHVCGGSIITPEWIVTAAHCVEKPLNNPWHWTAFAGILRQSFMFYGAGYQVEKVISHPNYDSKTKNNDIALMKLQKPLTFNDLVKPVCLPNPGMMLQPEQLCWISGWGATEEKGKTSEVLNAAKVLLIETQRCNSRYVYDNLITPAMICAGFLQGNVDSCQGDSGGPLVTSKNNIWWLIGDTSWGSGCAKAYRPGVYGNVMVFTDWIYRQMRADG
Protocol: Inhibitors of TMPRSS2 were tested using a high throughput activity assay. […] TMPRSS2 (5 µl, 0.018 mg/ml) in assay buffer (50 mM Tris pH 8, 150 mM NaCl, 0.01% Tween20) was dispensed to that, using a BioRAPTR (Beckman Coulter), for a total assay volume of 5 µl.
After incubation at room temperature for 1 h, fluorescence was measured. […] Raw plate reads for each titration point were normalized relative to a positive control containing no enzyme (0% activity, full inhibition) and a negative control containing DMSO-only wells (100% activity, basal activity). Data normalization was performed using GraphPad Prism (GraphPad Software, San Diego, CA).
We employed the curve fitting algorithm available in the SciPy package (version 1.10.1)[61] to derive the Hill slope and the IC50 value, along with their corresponding error estimates.

[3] = first round of screening on the NCATS in-house library (docking score selection), read-out: IC50
[4] = second round of screening on the NCATS in-house library (dynamic h-score selection), read-out: IC50

Row | SMILES | max response (%) [1] | IC50 [2, 3] | also measured
1 | C#C[C@]1(O)CC[C@H]2[C@@H]3CCC4=CC(=O)CCC4=C3C=C[C@@]21CC [NCGC00167457-02] | -24.7304% |  | 
2 | Clc1cccc(C(c2ccc3nc[nH]c3c2)n2ccnc2)c1 (stereo not shown) [NCGC00181034-03] | -10.9542% |  | 
3 | CCOC(=O)COc1ccc2c(=O)cc(-c3ccccc3)oc2c1 [NCGC00182622-03] | -10.6731% |  | 
4 | COC(=O)c1ccc(OC)c(Cn2c(=O)n(-c3cccc(Cl)c3)c(=O)c3c2c2cc(C)ccc2n3C)c1 [NCGC00104930-01] |  | 31.6 µM | 
5 | Cc1ccc(S(=O)(=O)NC(=O)NN2CC3CCCC3C2)cc1 (stereo not shown) [NCGC00095107-09] | -9.733% |  | 
6 | COc1ccc(-c2cc(C(=O)Oc3ccc(C)c(C)c3)c3ccccc3n2)cc1 [NCGC00099485-01] |  | 15.8 µM | 
7 | Nc1nc2ccc(OC(F)(F)F)cc2s1 [NCGC00015882-15] | -16.2214% |  | 
8 | CN(C(=O)C(Cl)Cl)c1ccc(OC(=O)c2ccco2)cc1 [NCGC00016637-10] | -56.9847% |  | 
9 | Nc1nn(-c2ccccc2)nc1C(=O)OCc1ccccc1 [NCGC00102837-01] |  |  | IC50 [2, 4]: 17.8 µM
10 | C=C1C(=O)O[C@@H]2[C@H]3O[C@]3(C)CC/C=C(/C)CC[C@@H]12 [NCGC00024683-23] | -10.5725% |  | 
11 | CCC(=O)c1ccc2c(c1)N(CCCN(C)C)c1ccccc1S2.Cl [NCGC00015838-06] | -16.7557% |  | 
12 | Nc1nn(-c2ccccc2)nc1C(=O)OCc1ccccc1Br [NCGC00102940-01] |  |  | IC50 [2, 4]: 17.8 µM
13 | CC(=O)Oc1cccc(O)c1 [NCGC00095054-05] | -8.588% |  | 
14 | CCOC(=O)Cn1cccc1-c1nc(-c2ccc(OC)cc2)c(-c2ccc(OC)cc2)s1 [NCGC00182996-01] | -15.3817% |  | 
15 | COc1cc(N)c(Cl)cc1C(=O)NC1CCN(Cc2ccccc2)CC1 [NCGC00016951-05] | -0.1908% |  | 
16 | CCOC(=O)CCN(C(=O)c1ccc2c(c1)nc(CNc1ccc(C(=N)N)cc1)n2C)c1ccccn1 [dabigatran ethyl ester] |  |  | IC50 ([2]; hits from NCATS in-house library screening, read-out: IC50, TMPRSS2 biochemical assay): 2.24 µM
17 | C=CCN1CC[C@]23CCCC[C@H]2[C@H]1Cc1ccc(O)cc13 [NCGC00162247-06] | -23.7786% |  | 
18 | COC(=O)c1ccc(Nc2nc(-c3ccc(C)cc3)nc3ccccc23)cc1 [NCGC00099825-01] |  | 17.8 µM | 
19 | C[C@]12CCC(=O)C=C1CC[C@@H]1[C@@H]2[C@@H](O)C[C@@]2(C)[C@H]1CC[C@]2(O)C(=O)CO [NCGC00022848-17] | -0.7252% |  | 
20 | CC(=O)Oc1cc(C(C)C)c(OCCN(C)C)cc1C [NCGC00015678-10] | -9.504% |  | 
21 | O=C(c1ccc(F)cc1)C1CCN(CCn2c(=O)[nH]c3ccccc3c2=O)CC1 [NCGC00021146-09] | -16.7557% |  | 
22 | OCCn1cc(-c2cnc3nnn(Cc4ccc5ncccc5c4)c3n2)cn1 [NCGC00263161-11] |  | 19.9 µM | 
23 | N=C(N)c1ccc2cc(OC(=O)c3ccc(N=C(N)N)cc3)ccc2c1 [NCGC00160398-05] | -96.6794% |  | 
24 | O=C(OCC(O)CO)c1ccccc1Nc1ccnc2c(C(F)(F)F)cccc12 (stereo not shown) [NCGC00249912-01] |  | 31.6 µM | 
25 | CC(C)c1ccc2oc(-c3ccc(NC(=O)c4cc5ccccc5o4)cc3)nc2c1 [NCGC00099237-01] |  | 22.4 µM | 
26 | Fc1cc(F)cc(Cc2nc3nccc(-c4cc5ccccc5o4)n3n2)c1 [NCGC00424555-01] |  | 12.6 µM | 
27 | Cc1cccc(-n2ncc3c(Nc4ccc(Oc5ccc(Cl)cc5)cc4)ncnc32)c1 [NCGC00138820-01] |  | 12.6 µM | 
28 | N=C(N)c1ccc(OCCCOc2ccc(C(=N)N)cc2Br)c(Br)c1 [NCGC00189076-01] | -77.315% |  | 

Row | SMILES | max response (%) [1] | IC50 [2, 3] | also measured
29 | Cn1ccc2c(C(=O)NCCc3cnc[nH]3)nc(-c3cnn(Cc4ccccc4)c3)cc21 [NCGC00411713-01] |  | 35.5 µM | 
30 | CS(=O)(=O)O.C[C@H](N)C(=O)N[C@@H](C)C(=O)NC1[C@H]2CN(c3nc4c(cc3F)c(=O)c(C(=O)O)cn4-c3ccc(F)cc3F)C[C@@H]12 (stereo partly shown) [NCGC00261969-01] | -25.1766% |  | 
31 | Nc1n[nH]c(CNc2cc(-c3ccc(F)cc3)nc3ccnn23)n1 [NCGC00434595-01] |  | 19.9 µM | 
32 | Cn1nnc(-c2ccc(-c3ccc(N4C[C@H](COP(=O)(O)O)OC4=O)cc3F)cn2)n1 [NCGC00482851-02] |  | 35.5 µM | 
33 | CCOC(=O)c1cccc(Nc2ccc3cc(S(=O)(=O)N4CCCCC4)ccc3n2)c1 [NCGC00127764-01] |  | 14.1 µM | 
34 | CC1(C)O[C@@H]2C[C@H]3[C@@H]4CCC5=CC(=O)C=C[C@]5(C)[C@@]4(F)[C@@H](O)C[C@]3(C)[C@]2(C(=O)CO)O1 [NCGC00023193-06] | -22.5573% |  | 
35 | CCOC(=O)c1c(-c2ccc(OC)cc2)oc2ccc(OCc3ccc(F)cc3F)cc12 [NCGC00099773-01] |  | 31.6 µM | 
36 | CCCNCC(O)COc1ccccc1C(=O)CCc1ccccc1 (stereo not shown) [NCGC00015819-15] | -5.725% |  | 
37 | CC=CC1C(C(=O)OCc2c(F)c(F)c(COC)c(F)c2F)C1(C)C (stereo not shown) [NCGC00319021-01] | -16.0283% |  | 
38 | CN[C@H]1C[C@@H](N)[C@H](O)[C@@H](O[C@@H]2O[C@H](CO)[C@H](O)[C@@H]3OC4(O[C@H]23)O[C@H]([C@@H](N)CO)[C@H](O)[C@H](O)[C@H]4O)[C@@H]1O (stereo partly shown) [NCGC00188433-02] | -14.1688% |  | 
39 | COc1cccc(COC(=O)c2ccc(-c3nnn(Cc4ccccc4)n3)cc2)c1 [NCGC00102929-01] |  |  | IC50 [2, 4]: 17.8 µM
40 | S=P(N1CC1)(N1CC1)N1CC1 [NCGC00095042-09] | -29.4275% |  | 
41 | CC(=O)Nc1ccc(CN2C(=O)OC3(CCN(C(=O)c4cccc(C#N)c4)CC3)C2(C)c2ccccc2)cc1 (stereo not shown) [NCGC00415676-01] |  |  | IC50 [2, 4]: 31.6 µM
42 | O=C(O)CCNC(=O)c1ccc(N=Nc2ccc(O)c(C(=O)O)c2)cc1 [NCGC00164634-02] | -22.1756% |  | 
43 | CC(=O)Nc1cccc(-c2cc3c(ccn3C)c(C(=O)NCc3c(C)cc(C)[nH]c3=O)n2)c1 [NCGC00411690-01] |  | 17.8 µM | 
44 | CCOc1ccc(-n2nc(CO)c(C(=O)NCC(c3ccccc3)c3ccccc3)n2)cc1 [NCGC00117127-01] |  | 22.4 µM | 
45 | Cc1cc(-c2cc3c(nc2-c2ccccc2)nc(C(=O)NCCN(C)C)n3C)ccn1 [NCGC00417822-01] |  |  | IC50 [2, 4]: 19.9 µM
46 | CCCCC(=O)Oc1ccc2oc(-c3ccc(OC)cc3)cc(=O)c2c1 [NCGC00100604-01] |  | 12.6 µM | 
47 | COC(=O)CNC(=O)c1nc(-c2cccc(C(F)(F)F)c2)c2ccccn12 [NCGC00476320-01] |  | 15.8 µM | 
48 | Cc1ccc(C(=O)Oc2ccc(C(O)CNC(C)(C)C)cc2OC(=O)c2ccc(C)cc2)cc1 (stereo not shown) [NCGC00253593-01] |  |  | IC50 [2, 4]: 14.1 µM
49 | COC(=O)Cc1c(C)c2ccc3c(c2oc1=O)CN(Cc1ccc(C)cc1)CO3 [NCGC00116348-01] |  | 15.8 µM | 
50 | O=C(NCc1ccc(-c2cnc3c(Oc4ccccc4)nccn23)cc1)c1ccn[nH]1 [NCGC00413991-01] |  | 35.5 µM | 
51 | COC(=O)c1ccccc1NC(=O)CCCS(=O)(=O)c1nc(-c2ccccc2OC)cc(C(F)(F)F)n1 [NCGC00103995-01] |  | 14.1 µM | 
52 | CC(=O)Nc1cccc(-c2nc(-c3c(C)noc3C)cc3c2cc(-c2ccccc2)n3C)c1 [NCGC00417192-01] |  | 8.91 µM | 
53 | Cc1cc(C)c(CNC(=O)c2nc(-c3cccc(C(F)(F)F)c3)cc3[nH]ccc23)c(=O)[nH]1 [NCGC00411596-01] |  | 8.91 µM | 
54 | Cc1cc(C(=O)Nc2cc(Oc3ccc4nc(NC(=O)C5CC5)cn4n3)ccc2C)n(C)n1 [NCGC00485933-01] |  | 31.6 µM | 
55 | O=C(OCC1CCCO1)c1ccc2c(c1)N(Cc1ccc(F)cc1)C(=O)c1ccccc1S2(=O)=O (stereo not shown) [NCGC00127812-01] |  |  | IC50 [2, 4]: 15.8 µM
